Data: patent publication US20260185169A1, “MOLECULAR SIGNATURES TO PREDICT LONG-TERM LIVER FIBROSIS PROGRESSION” (THE BOARD OF REGENTS OF THE UNIVERSITY OF TEXAS SYSTEM, priority 2022, published 2026)

Assays:
[1] = test system: NASH patients with F1 to F3 fibrosis; details: phase IIb CENTAUR trial, 1-year treatment; cited from earlier work
[2] = test system: NASH patients with F1 to F3 fibrosis; assay: Histological fibrosis change after 1-year treatment in phase IIb CENTAUR trial; format: in vivo, human; details: cenicriviroc arm n=9, 1-year treatment

In the case of `CCCCOCCOc1ccc(-c2ccc3c(c2)/C=C(/C(=O)Nc2ccc([S@@+]([O-])Cc4cncn4CCC)cc2)CCCN3CC(C)C)cc1` [Cenicriviroc], the histological fibrosis [1] is listed as “improved histological fibrosis” and the “patients with improvement of fibrosis in the year 1 biopsy” value [2] is listed as 4 patients.
